Each compound was assayed against STAT3 (Homo sapiens, UniProt P40763) (assay: Quantitation of STAT3 degradation in A549 cells by Western blot). Conditions: read-out: A549 DC50, 24 hours, tested up to 30 μM or 10 μM.
Format: cell-based
Set-up: expressed in transfected cells; host or cells: A549
Description: Degradation of total cellular STAT3 protein in A549 was quantitatively measured using SDS-PAGE and Western blot analysis. A549 cells (5×10^5 cells/well, 2 mL) were seeded into 6-well plates and were incubated in the incubator under 5% CO2 overnight to reach ˜80% confluency. The next day, the culture medium was changed with 1 ml fresh media. Then, 1 mL of media containing 2× compound solution was added into the well to make the final concentration of 30 μM, 10 μM, 3 μM, 1 μM, 0.3 μM and 0 μM (DMSO). The media was thoroughly mixed and incubated for 24 hours at 37° C. under 5% CO2. Then, the culture media was removed from the assay plates and the cells were washed with ice-cold PBS twice. To prepare cell lysates, 200 ul pre-chilled RIPA lysis buffer (Boston BioProducts BP-115D) with protease/phosphatase inhibitor (Roche 05892791001/Roche 04906837001) was added directly into the well to lyse the cells for 20 minutes on ice. The cell lysates were then transferred to centrifuge tubes. Insoluble part of lysates was removed by centrifuging the lysates at 13000 rpm for 20 minutes. The supernatant was then collected and mixed with 5× loading buffer (Beyotime Bio P0015) to make the final samples for SDS-PAGE analysis. The samples were heated at 100° C. for 10 minutes and cool to room temperature before centrifuging at 13000 rpm for 20 minutes. To analyze the samples by SDS-PAGE, 10 ul samples were loaded onto SDS-PAGE gel (Novex, WG1403BOX) and the SDS-PAGE gel was run for 20 minutes at 80 V, then at 120 V for 1.5 hours. The SDS-PAGE gel was then transferred to nitrocellulose membrane using the wet-transfer method at 250 mA for 1.5 hours. The membrane was then blocked with LI-COR blocking buffer (LI-COR, 927-50000) for 1 hour and was probed with primary antibody (mouse anti-STAT3 (124H6) (CST #91395) 1:2000 or mouse anti-beta-Actin (8H10D10) (CST #3700) 1:10000) at 4° C. overnight. The membrane was then washed three times with TBST buffer and probed with secondary antibody (anti-mouse IgG (LI-COR, 926-68070), 1:5000) for 1 hour at room temperature. The membrane was then scanned on a LI-COR Odyssey instrument and was quantified using Image Studio Version 5.2. Concentration at 50% degradation (DC50) was calculated by fitting dose dependent degradation data using a sigmoidal equation using GraphPad Prism Version 8.0.

STAT3, sequence (P40763 whole entry): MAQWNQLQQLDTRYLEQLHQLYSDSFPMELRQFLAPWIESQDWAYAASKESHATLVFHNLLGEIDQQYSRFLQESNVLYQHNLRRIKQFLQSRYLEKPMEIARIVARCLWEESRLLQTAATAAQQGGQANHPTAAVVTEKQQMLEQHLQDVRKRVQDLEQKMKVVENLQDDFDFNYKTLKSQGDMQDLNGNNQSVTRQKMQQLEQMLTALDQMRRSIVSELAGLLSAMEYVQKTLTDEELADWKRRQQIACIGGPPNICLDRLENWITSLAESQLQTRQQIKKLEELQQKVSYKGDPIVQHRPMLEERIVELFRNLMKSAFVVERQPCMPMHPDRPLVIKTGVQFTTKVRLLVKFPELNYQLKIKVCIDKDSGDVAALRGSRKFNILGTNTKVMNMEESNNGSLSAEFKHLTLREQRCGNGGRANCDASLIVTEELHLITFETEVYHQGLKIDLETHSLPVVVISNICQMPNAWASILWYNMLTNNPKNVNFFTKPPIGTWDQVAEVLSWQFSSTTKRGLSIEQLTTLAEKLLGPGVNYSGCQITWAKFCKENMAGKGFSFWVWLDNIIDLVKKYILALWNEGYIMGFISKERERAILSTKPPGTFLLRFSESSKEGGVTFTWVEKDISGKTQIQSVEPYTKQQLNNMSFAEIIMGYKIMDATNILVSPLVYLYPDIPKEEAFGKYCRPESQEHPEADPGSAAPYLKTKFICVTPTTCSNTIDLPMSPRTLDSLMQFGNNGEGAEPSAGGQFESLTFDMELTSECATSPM

Compound | DC50 [µM]
CCCC[C@H](NC(=O)/C=C(\C)c1ccc(C(F)(F)P(=O)(OCOC(=O)C(C)(C)C)OCOC(=O)C(C)(C)C)cc1)C(=O)N1C[C@H]2C[C@H]2[C@H]1C(=O)N[C@@H](CCC(N)=O)[C@@H](C)OCc1ccc(CCCNC(=O)COCCOCCOCCCc2ccc3c(c2)n(C)c(=O)n3C2CCC(=O)NC2=O)cc1 (stereo partly drawn) [Compound I-59, [([4-[(1E)-1-[[(2S)-1-[(1R,2S,5S)-2-[[(3S,4R)-1-carbamoyl-4-[[4-(3-[2-[2-(2-[3-[1-(2,6-dioxopiperidin-3-yl)-3-methyl-2-oxo-1,3-benzodiazol-5-yl]propoxy]ethoxy)ethoxy]acetamido]propyl)phenyl]methoxy]pentan-3-yl]carbamoyl]-3-azabicyclo[3.1.0]hexan-3-yl]-1-oxohexan-2-yl]carbamoyl]prop-1-en-2-yl]phenyl]difluoromethyl([(2,2-dimethylpropanoyl)oxy]methoxy)phosphoryl)oxy]methyl 2,2-dimethylpropanoate] | > 30
C/C(=C\C(=O)N[C@H]1CCc2cccc3c2N(C1=O)[C@H](C(=O)N[C@@H](CCC(N)=O)[C@@H](C)OCc1ccc(CCOCCCc2cccc4c2n(C)c(=O)n4C2CCC(=O)NC2=O)cc1)C3)c1ccc(C(F)(F)P(=O)(OCOC(=O)C(C)(C)C)OCOC(=O)C(C)(C)C)cc1 (stereo partly drawn) [Compound I-9, [([4-[(1E)-1-[[(2S,11S)-2-[[(3S,4R)-1-carbamoyl-4-[[4-(2-[3-[1-(2,6-dioxopiperidin-3-yl)-3-methyl-2-oxo-1,3-benzodiazol-4-yl]propoxy]ethyl)phenyl]methoxy]pentan-3-yl]carbamoyl]-12-oxo-1-azatricyclo[6.4.1.0^[4,13]]trideca-4(13),5,7-trien-11-yl]carbamoyl]prop-1-en-2-yl]phenyl]difluoromethyl([(2,2-dimethylpropanoyl)oxy]methoxy)phosphoryl)oxy]methyl 2,2-dimethylpropanoate] | > 30
Cc1ncsc1-c1ccc(CNC(=O)[C@@H]2C[C@@H](O)CN2C(=O)[C@@H](NC(=O)CCc2ccc3cc(CO[C@H](C)[C@H](CCC(N)=O)NC(=O)[C@@H]4Cc5cccc6c5N4C(=O)[C@@H](NC(=O)c4cc5cc(C(=O)P(=O)(O)O)ccc5[nH]4)CC6)ccc3c2)C(C)(C)C)cc1 [Compound I-87, diammonium 2-[[(2S,11S)-2-[[(3S,4R)-1-carbamoyl-4-[[6-(2-[[(2S)-1-[(2S,4R)-4-hydroxy-2-([[4-(4-methyl-1,3-thiazol-5-yl)phenyl]methyl]carbamoyl)pyrrolidin-1-yl]-3,3-dimethyl-1-oxobutan-2-yl]carbamoyl]ethyl)naphthalen-2-yl]methoxy]pentan-3-yl]carbamoyl]-12-oxo-1-azatricyclo[6.4.1.0^[4,13]]trideca-4(13),5,7-trien-11-yl]carbamoyl]-1H-indole-5-carbonylphosphonate] | < 30
Cc1ncsc1-c1ccc(CNC(=O)C2C[C@@H](O)CN2C(=O)[C@@H](NC(=O)CCCc2ccc(CO[C@H](C)[C@H](CCC(N)=O)NC(=O)[C@@H]3Cc4cccc5c4N3C(=O)[C@@H](NC(=O)c3cc4cc(C(=O)P(=O)(O)O)ccc4[nH]3)CC5)cc2)C(C)(C)C)cc1 (some centres unmarked) [Compound I-101] | < 30
C/C(=C\C(=O)N[C@H]1CCc2cccc3c2N(C1=O)[C@H](C(=O)N[C@@H](CCC(N)=O)[C@@H](C)OCc1ccc(CCCC(=O)N[C@H](C(=O)N2C[C@H](O)C[C@H]2C(=O)NCc2ccc(-c4scnc4C)cc2)C(C)(C)C)cc1)C3)c1ccc(C(F)(F)P(=O)(OCOC(=O)C(C)(C)C)OCOC(=O)C(C)(C)C)cc1 [Compound I-7] | < 30
Cn1c(=O)n(C2CCC(=O)NC2=O)c2cccc(CCCCCCCC(=O)N3CC[C@H]4CC[C@@H](C(=O)N[C@@H](CCC(N)=O)C(=O)NC(c5ccccc5)c5ccccc5)N4C(=O)[C@@H](NC(=O)c4cc5cc(C(=O)P(=O)(O)O)ccc5[nH]4)C3)c21 (some centres unmarked) [Compound I-91] | < 30
C/C(=C\C(=O)N[C@H]1CCc2cccc3c2N(C1=O)[C@H](C(=O)N[C@@H](CCC(N)=O)[C@@H](C)OCc1ccc(CC(=O)N[C@H](C(=O)N2C[C@H](O)C[C@H]2C(=O)NCc2ccc(-c4scnc4C)cc2)C(C)(C)C)cc1)C3)c1ccc(C(F)(F)P(=O)(OCOC(=O)C(C)(C)C)OCOC(=O)C(C)(C)C)cc1 [Compound I-4] | > 30
C/C(=C\C(=O)N[C@H]1CCc2cccc3c2N(C1=O)[C@H](C(=O)NC(CCC(N)=O)[C@@H](C)OCc1ccc(CCCOCCCCCOCCCc2cccc4c2n(C)c(=O)n4C2CCC(=O)NC2=O)cc1)C3)c1ccc(C(F)(F)P(=O)(OCOC(=O)C(C)(C)C)OCOC(=O)C(C)(C)C)cc1 (some centres unmarked) [Compound I-43] | > 30
C/C(=C\C(=O)N[C@H]1CCc2cccc3c2N(C1=O)[C@H](C(=O)NC(CCC(N)=O)[C@@H](C)OCc1ccc(CCCOCCCCCc2ccc4c(c2)n(C)c(=O)n4C2CCC(=O)NC2=O)cc1)C3)c1ccc(C(F)(F)P(=O)(OCOC(=O)C(C)(C)C)OCOC(=O)C(C)(C)C)cc1 (stereo partly drawn) [Compound I-36, [([4-[(1E)-1-[[(2S,11S)-2-[[(3S,4R)-1-carbamoyl-4-([4-[3-([5-[1-(2,6-dioxopiperidin-3-yl)-3-methyl-2-oxo-1,3-benzodiazol-5-yl]pentyl]oxy)propyl]phenyl]methoxy)pentan-3-yl]carbamoyl]-12-oxo-1-azatricyclo[6.4.1.0^[4,13]]trideca-4(13),5,7-trien-11-yl]carbamoyl]prop-1-en-2-yl]phenyl]difluoromethyl([(2,2-dimethylpropanoyl)oxy]methoxy)phosphoryl)oxy]methyl 2,2-dimethylpropanoate] | > 10
C/C(=C\C(=O)N[C@H]1CCc2cccc3c2N(C1=O)[C@H](C(=O)N[C@@H](CCC(N)=O)[C@@H](C)OCc1ccc(CCOCCOCCOCCOCC(=O)N[C@H](C(=O)N2C[C@H](O)C[C@H]2C(=O)NCc2ccc(-c4scnc4C)cc2)C(C)(C)C)cc1)C3)c1ccc(C(F)(F)P(=O)(OCOC(=O)C(C)(C)C)OCOC(=O)C(C)(C)C)cc1 [Compound I-27] | > 10
CCCC[C@H](NC(=O)/C=C(\C)c1ccc(C(F)(F)P(=O)(OCOC(=O)C(C)(C)C)OCOC(=O)C(C)(C)C)cc1)C(=O)N1C[C@H]2C[C@H]2[C@H]1C(=O)N[C@@H](CCC(N)=O)[C@@H](C)OCc1ccc(CCCNC(=O)COCCOCCCc2ccc3c(c2)n(C)c(=O)n3C2CCC(=O)NC2=O)cc1 (stereo partly drawn) [Compound I-58, [([4-[(1E)-1-[[(2S)-1-[(1R,2S,5S)-2-[[(3S,4R)-1-carbamoyl-4-[(4-[3-[2-(2-[3-[1-(2,6-dioxopiperidin-3-yl)-3-methyl-2-oxo-1,3-benzodiazol-5-yl]propoxy]ethoxy)acetamido]propyl]phenyl)methoxy]pentan-3-yl]carbamoyl]-3-azabicyclo[3.1.0]hexan-3-yl]-1-oxohexan-2-yl]carbamoyl]prop-1-en-2-yl]phenyl]difluoromethyl([(2,2-dimethylpropanoyl)oxy]methoxy)phosphoryl)oxy]methyl 2,2-dimethylpropanoate] | > 30
C/C(=C\C(=O)N[C@H]1CCc2cccc3c2N(C1=O)[C@H](C(=O)NC(CCC(N)=O)[C@@H](C)OCc1ccc(CCCCOCC(=O)N[C@H](C(=O)N2C[C@H](O)C[C@H]2C(=O)NCc2ccc(-c4scnc4C)cc2)C(C)(C)C)cc1)C3)c1ccc(C(F)(F)P(=O)(OCOC(=O)C(C)(C)C)OCOC(=O)C(C)(C)C)cc1 (some centres unmarked) [Compound I-34] | < 30
C/C(=C\C(=O)N[C@H]1CCc2cccc3c2N(C1=O)[C@H](C(=O)NC(CCC(N)=O)[C@@H](C)OCc1ccc(CCCOCCOCC(=O)N[C@H](C(=O)N2C[C@H](O)C[C@H]2C(=O)NCc2ccc(-c4scnc4C)cc2)C(C)(C)C)cc1)C3)c1ccc(C(F)(F)P(=O)(OCOC(=O)C(C)(C)C)OCOC(=O)C(C)(C)C)cc1 (some centres unmarked) [Compound I-37] | > 10
C/C(=C\C(=O)N[C@H]1CCc2cccc3c2N(C1=O)[C@H](C(=O)NC(CCC(N)=O)[C@@H](C)OCc1ccc(CCCOCCOCCOCC(=O)N[C@H](C(=O)N2C[C@H](O)C[C@H]2C(=O)NCc2ccc(-c4scnc4C)cc2)C(C)(C)C)cc1)C3)c1ccc(C(F)(F)P(=O)(OCOC(=O)C(C)(C)C)OCOC(=O)C(C)(C)C)cc1 (some centres unmarked) [Compound I-33] | > 10

— patent US12077555B2, “STAT degraders and uses thereof” (Kymera Therapeutics, Inc., priority 2019, dated 2024)
